Reference: patent US7456152B2, “Peptide inhibitors of thrombin as potent anticoagulants” (priority 2004, dated 2008)
“And” between values parts separate entries of the source, which are not always exact repeats. Identical values can stand only once. Ends that are not written are not given here.

Legend:
[1] = target: T1, human α-thrombin (Homo sapiens, UniProt P00734); test: Clotting assay: fibrinogen clotting by human thrombin, concentration doubling the clotting time (DCT) = IC50; format: biochemical
T1 construct: Bovine and human α-thrombins were supplied by Haematologic Technologies Inc (VT, USA); cleaved off efficiently by thrombin to generate the free N-terminus of the A-chain of human thrombin; purchased Haematologic Technologies Inc (VT, USA)
Protocol: The clotting assays were carried out by use of the protocols described previously (DiMaio, J., Gibbs, B., Munn, D., Lefebvre, J., Ni, F., and Konishi, Y. (1990) J. Biol. Chem. 265, 21698-21703; and Witting, J. I., Bourdon, P., Brezniak, D. V., Maraganore, J. M., and Fenton, J. W. (1992) Biochem. J. 283 (Pt 3), 737-743) The assay employs bovine plasma fibrinogen dissolved at 0.1% in 50 mM Tris-Cl, 100 mM NaCl, 0.1% PEG-8000 at pH 7.6 (i.e. the clotting buffer). Each assay mixture contained a certain concentration of the peptide, and the reaction was started by the addition of human thrombin to a final concentration of 0.1 NIH unit/ml. Optical absorbance of the assay mixtures was measured at 420 nm and 37° C. using the Spectramax™ plate reader. The onset clotting time was determined as an intersection of the baseline and the initial slope of the O.D. change as a result of fibrin clot formation. The concentration of a peptide needed to double the clotting time (DCT) was defined as IC50. Peptide concentrations were determined by comparing the O.D.280 values of peptide stock solutions in the clotting buffer (vide supra) with the predicted extinction coefficient for each peptide (Gill, S. C. and von Hippel, P. H. (1989) Anal. Biochem. 182, 319-326).
The peptide concentration for doubling the clotting time (DCT) was defined as the IC50 value.

[2] = target: T1, human α-thrombin; test: Inhibition of the amidolytic activity of thrombin (Tos-Gly-Pro-Arg-p-nitroanilide hydrolysis); format: biochemical; details: Amidolytic assay, 25° C. (Ki, nM), Tos-Gly-Pro-Arg-pNA, 25° C.
Protocol: Kinetics of thrombin-catalyzed hydrolysis of the chromogenic substrate Tos-Gly-Pro-Arg-p-nitroanilide were followed by absorbance at 405 nm on a Spectramax plate reader thermostated at either 25° C. or 37° C. according to the method of Maragnore et al (supra). The concentrations of Tos-Gly-Pro-Arg-p-nitroanilide ranged from 2 to 400 μM. Initial rates were calculated under conditions of <15% hydrolysis of the total substrate. The KM and Vmax values were calculated accordingly and kcat values were determined by dividing Vmax by the enzyme (thrombin) concentration. The inhibition assays were performed in the clotting buffer with a certain fixed concentration of α-thrombin (˜0.3 nM) such that linear progress curves were achieved within at least 15 min in the absence of the inhibition. The total volume of the solution was fixed at 200 μl. Reactions were initiated by addition of the chromogenic substrate to the wells containing thrombin and a certain concentration of the peptide inhibitors premixed for less than 2 min. Alternatively, the substrate was first mixed with the peptide inhibitor and the total volume was adjusted to 120 μL using the clotting buffer. Eighty microliters of human α-thrombin in the clotting buffer (˜0.3 nM final concentration) was added to initiate the reaction. The concentration of the peptides ranged from 0.5 nM to 10 μM. Kinetics data from initial rate experiments were used to construct Lineweaver-Burke plot; i.e. the relationship of (substrate concentration)^−1 versus (initial velocity)^−1 which. were analysed by linear regression with MicroCal Origin 4.1 program (MicroCal, MD) or using the GraphPad Prism software. The Ki values of the inhibitors were determined using the equation: Ki=[I]/{(SL0/SL1)−1}, where
[I] is the inhibitor concentration,
SL0 is the slope of the reaction in the absence of inhibitors, and
SL1 is the slope of the reaction in the presence of the inhibitor.
Alternatively, Dixon plots of inverse velocity versus the inhibitor concentrations were generated with the Sigmaplot™ software. Every Dixon plot contained an array of data corresponding to different substrate concentrations and the Ki values were determined from the intersections. Following Peptide Cleavage by HPLC

Molecule | IC50 [1] | Ki [2]
CC[C@H](C)[C@H](NC(=O)[C@H](CCC(=O)O)NC(=O)[C@H](CCC(=O)O)NC(=O)[C@H](Cc1ccccc1)NC(=O)[C@H](CC(=O)O)NC(=O)CNC(=O)[C@H](CC(=O)O)NC(=O)[C@H](CC(N)=O)NC(=O)[C@H](Cc1c[nH]cn1)NC(=O)[C@H](CC(=O)O)NC(=O)[C@H](CCC(N)=O)NC(=O)[C@@H]1CCCN1C(=O)[C@H](CCCNC(=N)N)NC(=O)[C@@H]1CCCN1C(=O)[C@H](CC(=O)O)NC(=O)[C@@H](N)Cc1ccccc1)C(=O)N1CCC[C@H]1C(=O)N[C@@H](CCC(=O)O)C(=O)N[C@@H](CCC(=O)O)C(=O)N[C@@H](Cc1ccc(O)cc1)C(=O)N[C@@H](CC(C)C)C(=O)N[C@@H](CCC(N)=O)C(=O)O [FD22-D] | 53 ± 2 nM | –
CC[C@H](C)[C@H](NC(=O)[C@H](CCC(=O)O)NC(=O)[C@H](CCC(=O)O)NC(=O)[C@H](Cc1ccccc1)NC(=O)[C@H](CC(=O)O)NC(=O)CNC(=O)[C@H](CC(=O)O)NC(=O)[C@H](CC(N)=O)NC(=O)[C@H](Cc1c[nH]cn1)NC(=O)[C@H](CCCNC(=N)N)NC(=O)[C@H](CCC(N)=O)NC(=O)[C@@H]1CCCN1C(=O)[C@H](CCCNC(=N)N)NC(=O)[C@@H]1CCCN1C(=O)[C@H](CC(=O)O)NC(=O)[C@@H](N)Cc1ccccc1)C(=O)N1CCC[C@H]1C(=O)N[C@@H](CCC(=O)O)C(=O)N[C@@H](CCC(=O)O)C(=O)N[C@@H](Cc1ccc(O)cc1)C(=O)N[C@@H](CC(C)C)C(=O)N[C@@H](CCC(N)=O)C(=O)O [FD22-R] | ~32 nM and 32 nM | 45 ± 6 nM
CC[C@H](C)[C@H](NC(=O)[C@H](CCC(=O)O)NC(=O)[C@H](CCC(=O)O)NC(=O)[C@H](Cc1ccccc1)NC(=O)[C@H](CC(=O)O)NC(=O)CNC(=O)[C@H](CC(=O)O)NC(=O)[C@H](CC(N)=O)NC(=O)[C@H](Cc1c[nH]cn1)NC(=O)[C@H](CO)NC(=O)[C@H](CCC(N)=O)NC(=O)[C@@H]1CCCN1C(=O)[C@H](CCCNC(=N)N)NC(=O)[C@@H]1CCCN1C(=O)[C@H](CC(=O)O)NC(=O)[C@@H](N)Cc1ccccc1)C(=O)N1CCC[C@H]1C(=O)N[C@@H](CCC(=O)O)C(=O)N[C@@H](CCC(=O)O)C(=O)N[C@@H](Cc1ccc(O)cc1)C(=O)N[C@@H](CC(C)C)C(=O)N[C@@H](CCC(N)=O)C(=O)O [FD22^(a)] | 50 ± 15 nM | 55 ± 10 nM
CC[C@H](C)[C@H](NC(=O)[C@H](CCC(=O)O)NC(=O)[C@H](CCC(=O)O)NC(=O)[C@H](Cc1ccccc1)NC(=O)[C@H](CC(=O)O)NC(=O)CNC(=O)[C@H](CC(=O)O)NC(=O)[C@H](CC(N)=O)NC(=O)[C@H](Cc1c[nH]cn1)NC(=O)[C@H](CC(=O)O)NC(=O)[C@H](CCC(N)=O)NC(=O)[C@@H]1CCCN1C(=O)[C@H](CCCNC(=N)N)NC(=O)[C@@H]1CCCN1C(=O)[C@H](CCC(=O)O)NC(=O)[C@@H](N)Cc1ccccc1)C(=O)N1CCC[C@H]1C(=O)N[C@@H](CCC(=O)O)C(=O)N[C@@H](CCC(=O)O)C(=O)N[C@@H](Cc1ccc(O)cc1)C(=O)N[C@@H](CC(C)C)C(=O)N[C@@H](CCC(N)=O)C(=O)O [FE22-D] | > 125 nM | –
CC[C@H](C)[C@H](NC(=O)[C@H](CCC(=O)O)NC(=O)[C@H](CCC(=O)O)NC(=O)[C@H](Cc1ccccc1)NC(=O)[C@H](CC(=O)O)NC(=O)CNC(=O)[C@H](CC(=O)O)NC(=O)[C@H](CC(N)=O)NC(=O)[C@H](Cc1c[nH]cn1)NC(=O)[C@H](CO)NC(=O)[C@H](CCC(N)=O)NC(=O)[C@@H]1CCCN1C(=O)[C@H](CCCNC(=N)N)NC(=O)[C@@H]1CCCN1C(=O)[C@H](CCC(=O)O)NC(=O)[C@@H](N)Cc1ccccc1)C(=O)N1CCC[C@H]1C(=O)N[C@@H](CCC(=O)O)C(=O)N[C@@H](CCC(=O)O)C(=O)N[C@@H](Cc1ccc(O)cc1)C(=O)N[C@@H](CC(C)C)C(=O)N[C@@H](CCC(N)=O)C(=O)O [FE22] | 80 nM | –
CC[C@H](C)[C@H](NC(=O)[C@H](CCC(=O)O)NC(=O)[C@H](CCC(=O)O)NC(=O)[C@H](Cc1ccccc1)NC(=O)[C@H](CC(=O)O)NC(=O)CNC(=O)[C@H](CC(=O)O)NC(=O)[C@H](CC(N)=O)NC(=O)[C@H](Cc1c[nH]cn1)NC(=O)[C@H](CO)NC(=O)[C@H](CCC(N)=O)NC(=O)[C@@H]1CCCN1C(=O)[C@H](CCCNC(=N)N)NC(=O)[C@@H]1CCCN1C(=O)[C@H](Cc1c[nH]cn1)NC(=O)[C@@H](N)Cc1ccccc1)C(=O)N1CCC[C@H]1C(=O)N[C@@H](CCC(=O)O)C(=O)N[C@@H](CCC(=O)O)C(=O)N[C@@H](Cc1ccc(O)cc1)C(=O)N[C@@H](CC(C)C)C(=O)N[C@@H](CCC(N)=O)C(=O)O [FH22] | > 150 nM | –
CC[C@H](C)[C@H](NC(=O)[C@H](CCC(N)=O)NC(=O)[C@@H]1CCCN1C(=O)[C@H](CCCNC(=N)N)NC(=O)[C@@H]1CCCN1C(=O)[C@H](CC(N)=O)NC(=O)[C@@H](N)Cc1ccccc1)C(=O)N[C@@H](Cc1c[nH]cn1)C(=O)N[C@@H](CC(N)=O)C(=O)N[C@@H](CC(=O)O)C(=O)NCC(=O)N[C@@H](CC(=O)O)C(=O)N[C@@H](Cc1ccccc1)C(=O)N[C@@H](CCC(=O)O)C(=O)N[C@@H](CCC(=O)O)C(=O)N[C@H](C(=O)N1CCC[C@H]1C(=O)N[C@@H](CCC(=O)O)C(=O)N[C@@H](CCC(=O)O)C(=O)N[C@@H](Cc1ccc(O)cc1)C(=O)N[C@@H](CC(C)C)C(=O)N[C@@H](CCC(N)=O)C(=O)O)[C@@H](C)CC [FN22-I] | 45 nM | 360 nM
CC[C@H](C)[C@H](NC(=O)[C@H](CCC(=O)O)NC(=O)[C@H](CCC(=O)O)NC(=O)[C@H](Cc1ccccc1)NC(=O)[C@H](CC(=O)O)NC(=O)CNC(=O)[C@H](CC(=O)O)NC(=O)[C@H](CC(N)=O)NC(=O)[C@H](Cc1c[nH]cn1)NC(=O)[C@H](CO)NC(=O)[C@H](CCC(N)=O)NC(=O)[C@@H]1CCCN1C(=O)[C@H](CCCNC(=N)N)NC(=O)[C@@H]1CCCN1C(=O)[C@H](CC(N)=O)NC(=O)[C@@H](N)Cc1ccccc1)C(=O)N1CCC[C@H]1C(=O)N[C@@H](CCC(=O)O)C(=O)N[C@@H](CCC(=O)O)C(=O)N[C@@H](Cc1ccc(O)cc1)C(=O)N[C@@H](CC(C)C)C(=O)N[C@@H](CCC(N)=O)C(=O)O [FN22^(a)] | 150 ± 15 nM | 100 ± 10 nM
CC[C@H](C)[C@H](NC(=O)[C@H](CCC(=O)O)NC(=O)[C@H](CCC(=O)O)NC(=O)[C@H](Cc1ccccc1)NC(=O)[C@H](CC(=O)O)NC(=O)CNC(=O)[C@H](CC(=O)O)NC(=O)[C@H](CC(N)=O)NC(=O)[C@H](Cc1c[nH]cn1)NC(=O)[C@H](CCSC)NC(=O)[C@H](CCC(N)=O)NC(=O)[C@@H]1CCCN1C(=O)[C@H](CCCNC(=N)N)NC(=O)[C@@H]1CCCN1C(=O)[C@H](CCC(N)=O)NC(=O)[C@@H](N)Cc1ccccc1)C(=O)N1CCC[C@H]1C(=O)N[C@@H](CCC(=O)O)C(=O)N[C@@H](CCC(=O)O)C(=O)N[C@@H](Cc1ccc(O)cc1)C(=O)N[C@@H](CC(C)C)C(=O)N[C@@H](CCC(N)=O)C(=O)O [FQ22-M] | ≥ 10 nM | –
CC[C@H](C)[C@H](N)C(=O)N[C@@H](CCC(N)=O)C(=O)N1CCC[C@H]1C(=O)N[C@@H](CCCNC(=N)N)C(=O)N1CCC[C@H]1C(=O)N[C@@H](CCC(N)=O)C(=O)N[C@H](C(=O)N[C@@H](Cc1c[nH]cn1)C(=O)N[C@@H](CC(N)=O)C(=O)N[C@@H](CC(=O)O)C(=O)NCC(=O)N[C@@H](CC(=O)O)C(=O)N[C@@H](Cc1ccccc1)C(=O)N[C@@H](CCC(=O)O)C(=O)N[C@@H](CCC(=O)O)C(=O)N[C@H](C(=O)N1CCC[C@H]1C(=O)N[C@@H](CCC(=O)O)C(=O)N[C@@H](CCC(=O)O)C(=O)N[C@@H](Cc1ccc(O)cc1)C(=O)N[C@@H](CC(C)C)C(=O)N[C@@H](CCC(N)=O)C(=O)O)[C@@H](C)CC)[C@@H](C)CC [IQ22-I] | 39 ± 3 nM | –
WDPRPQRHNDGDFEPIPEEYLQ [WD22-R-P^(d)] | 8.1 ± 1.1 nM | –
WDPRPQRHNDGDYEPIPEEYLQ [WD22-R-YP^(d)] | 4.8 ± 0.8 nM | –
WDPRPQSRNDGDFEPIPEEYLQ [WD22-SR-P] | 53 ± 2 nM | –
WDPRPQSRNDGDYEPIPEEYLQ [WD22-SR-YP] | 32 ± 3 nM | –
